Measurements as given in patent publication US6878751B1, “Administration of resveratrol to treat inflammatory respiratory disorders” (Imperial College of Science Technology and Medicine, priority 2000, dated 2005).

Test system: Smokers with no disease or mild COPD
Assay: Oral resveratrol for chemoprevention of COPD in smokers (Example 10)
Format: in vivo, human
Conditions: 2 to 5 years
Method: Resveratrol is evaluated clinically for efficacy in chemoprevention of COPD in smokers. The study is generally patterned after the asthma studies with modifications appropriate to the clinical and histopathologic evaluation of COPD disease, and the references listed in the preceding examples may be applied as appropriate. Smokers with no disease or mild COPD are treated once or more per day with gelatin capsules containing resveratrol. The population of smokers are subdivided into subpopulations: clinically and histopathologically disease free, clinically asymptomatic with histopathologic inflammation and mildly COPD symptomatic, meaning some chronic bronchitis but no pulmonary impairment causing hypoxemia or acidosis. Each subpopulation is divided randomly and blindly into four approximately equal groups that receive either 0 (placebo), 200, 2000, or 3000 mg/day resveratrol […] in oral doses of 0, 50, 500, or 750 mg administered 4 times daily for 2 to 5 years. […]
Patients are medically monitored for clinical symptoms of COPD throughout the study, including onset of symptoms and frequency and severity thereof. […] Forced expiratory volume (FEV) and forced inspiratory volume (FIV) are also evaluated to measure airway patency as a direct measure of clinical morbidity and to determine correlation the histopathologic and other indicators of clinical disease. […]

Oc1ccc(/C=C/c2cc(O)cc(O)c2)cc1 [Resveratrol, 3,5,4′-trihydroxystilbene]
side effects (oral, relative to those expected from steroid administration): without significant side effects
efficacy in chemoprevention of COPD in smokers (oral, 200, 2000 or 3000 mg/day): effective for chemoprevention of COPD in smokers
